Test systems include SNB-19 CNS; SK-MEL-5 melanoma; HL-60(TB) leukemia; EKVX NSCLC; NCI-H460 lung; OVCAR-8 ovarian; NCI-H522 lung; CCRF-CEM leukemia; RXF 393 renal; UACC-62 melanoma.
Experiment in all cases: NCI tumour cell line growth inhibition, 48 h

SMILES strings stand for the structures.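 48-hour exposure; five concentrations; linearly interpolated endpoints. GI50 marks 50% less growth. Definition used: TGI = concentration required for complete inhibition of growth.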 Some results are limits rather than exact numbers.

Take `COc1cc(/C=C/[N+](=O)[O-])cc(Br)c1OC`: the GI50 in the assay on SNB-19 CNS is 6.93 µM; in the assay on SK-MEL-5 melanoma, 2.13 µM; in the assay on HL-60(TB) leukemia, 1.62 µM; in the assay with EKVX NSCLC it was 3.32 µM; in the assay on NCI-H460 lung, 3.48 µM; in the assay on OVCAR-8 ovarian, 3.54 µM. Also, the GI50 with NCI-H522 lung was 0.816 µM; with CCRF-CEM leukemia, 6.65 µM; in the assay on RXF 393 renal, 1.61 µM; in the assay with UACC-62 melanoma, 3.49 µM. Further, the TGI with SNB-19 CNS is 19.2 µM; in the assay with SK-MEL-5 melanoma, 4.93 µM; in the assay with HL-60(TB) leukemia, greater than 100 µM; in the assay on EKVX NSCLC it was 14.6 µM; in the assay with NCI-H460 lung, 11.4 µM; in the assay with OVCAR-8 ovarian, 13.1 µM. Further, the TGI with NCI-H522 lung was determined as 2.83 µM; with CCRF-CEM leukemia it was 44.5 µM; with RXF 393 renal it was 3.01 µM; in the assay on UACC-62 melanoma, 12.2 µM.
As to `CC1CN1c1c(C(=O)/C=C/c2ccccc2)c(-c2ccccc2)nn(C)c1=O` (centres undefined), the TGI with SNB-19 CNS was 50.2 µM; in the assay with SK-MEL-5 melanoma, 29.4 µM; in the assay on HL-60(TB) leukemia, 49.7 µM; in the assay on EKVX NSCLC, 48.2 µM; in the assay on NCI-H460 lung, 41.2 µM; in the assay with OVCAR-8 ovarian, 41 µM. Besides, the TGI with NCI-H522 lung was found to be 26.2 µM; in the assay with CCRF-CEM leukemia it was 37.9 µM; in the assay on RXF 393 renal it was 41.4 µM; with UACC-62 melanoma it was 36.6 µM.
On to `O=C(Nc1cccc(Nc2ncc(Br)c(NCCc3cnc[nH]3)n2)c1)N1CCCC1`, for which the GI50 is 9.02 µM in the assay on SNB-19 CNS; 3.47 µM with HL-60(TB) leukemia; 6.07 µM in the assay on EKVX NSCLC; 3.68 µM with NCI-H460 lung; 8.44 µM in the assay on OVCAR-8 ovarian; 11.5 µM in the assay on NCI-H522 lung. The figures for the GI50 with CCRF-CEM leukemia, in the assay on RXF 393 renal and in the assay with UACC-62 melanoma were 0.58 µM, 1.61 µM and 6.12 µM, respectively. Also, the TGI was greater than 61.4 µM in the assay with SNB-19 CNS; 22.1 µM in the assay with SK-MEL-5 melanoma; 24.2 µM in the assay with HL-60(TB) leukemia; 38.1 µM in the assay with EKVX NSCLC; 15 µM in the assay with NCI-H460 lung; 24.8 µM in the assay with OVCAR-8 ovarian. In addition, the TGI in the assay with NCI-H522 lung came to 27.6 µM; in the assay with CCRF-CEM leukemia it was 29 µM; with RXF 393 renal, 9.06 µM; in the assay on UACC-62 melanoma it was 22.4 µM.

Values taken from PubChem BioAssay (NCI).
